The record followed here is patent US20250009819A1, “NOVEL PROBIOTICS AND USE THEREOF” (PBLBIOLAB CO., LTD., priority 2021, published 2025).

Assay type in all cases: in vivo, C57BL/6 male mice
Assay [1] concerns animals with antibiotic-induced gut microbiota imbalance. Nature of the assay: Animals with antibiotic (ampicillin)-induced gut microbiota imbalance: improvement effect in spleen. Conditions: ampicillin (AP)-treated mice, 1×10^9 CFU/mouse orally once a day for 5 days; for Foxp3 (fold change) / Tbet (fold change) / Tbet/Foxp3: spleen qPCR; for IFN-γ/IL-10 / IL-10 / Interferon (IFN)-γ / NK cell cytoxicity (%) / Phagocytosis (%) / TNF-a/IL-10 / TNF-α: spleen. On the procedure:
(§1) Hippocampus, colon, and spleen tissues were homogenized by adding 1 ml of RIPA buffer (Gibco) containing protease inhibitor cocktail and centrifuged at 4° C., 13000 rpm for 15 min to obtain supernatant. Indicators of this supernatant were measured using an ELISA kit (Ebioscience).
mRNA was isolated from spleen tissue using the RNA Isolation Kit: RNeasy Mini Kit (QIAGEN), converted to cDNA, and qPCR was performed to measure the expression rates of Tbet, Foxp3, and glyceraldehyde 3-phosphate dehydrogenase (GAPDH). The reaction product was first treated at 95° C. for 30 seconds, followed by 38 cycles of 5 seconds at 95° C. and 30 seconds at 72° C. for analysis.
(§2) C57BL/6 male mice (5 weeks old, 19-21 g) were divided (6 mice in each group) and acclimatized to the laboratory for 1 week. To induce intestinal and brain diseases, the mice were orally administered with ampicillin (AP, 100 mg/kg, dissolved in physiological saline) for 3 days. Meanwhile, the normal group was orally administered with 0.1 ml of physiological saline. […] The day following the conclusion of sample administration, the experimental animals were sacrificed, and samples from the brain hippocampus, colon, and spleen were collected. In the Hippocampus, inflammatory indicators, such as IFN-γ, TNF-α, and IL-10, were measured using ELISA. In the colon, intestinal length and inflammatory indicators, such as IFN-γ, TNF-α, and IL-10, were measured. In the spleen, Th1 cells and Treg cells were measured by FACS (Fluorescence-Activated Cell Sorting), and in feces, endotoxin (LPS) and gut microbial communities were measured.

Assay [2] has the same test system. Briefly: Animals with antibiotic (ampicillin)-induced gut microbiota imbalance: colitis improvement (colon). The following applies: ampicillin (AP)-treated mice, 1×10^9 CFU/mouse orally once a day for 5 days. On the procedure:
To 100 mg of colon tissue, 200 μl of 10 mM potassium phosphate buffer (pH 7.0) containing 0.5% hexadecyl trimethyl ammonium bromide was added and homogenized. Then, the supernatant was obtained by centrifugation for 10 minutes at 4° C. and 10,000 g. A volume of 50 μl of the supernatant was added to 0.95 mk of reaction solution (containing 1.6 mM tetramethyl benzidine and 0.1 mM H2O2), reacted at 37° C., and absorbance was monitored over time at 650 nm.
as §1, §2

The subject of assay [3] is gut microbiota. Briefly: Gut microbiota analysis in animals with ampicillin-induced gut microbiota imbalance (FIG. 1). Conditions: feces, ampicillin-treated mice, result in words. On the procedure: First, DNA from feces was isolated using the QIAamp DNA stool mini kit (Qiagen, Germany), pyrosequencing was performed by amplifying barcoded primers (V4 region of the bacterial 16S rRNA gene) to generate amplicons, and 16S rDNA was analyzed by Illumina iSeq 100 (San Diego, CA) to analyze occupancy.
as §2

Regarding Bifidobacterium longum NK219, in assay [1], the “Foxp3 (fold change)” value is on record as 1.66 fold change, the “Tbet (fold change)” value is reported as 1.03 fold change, the Tbet/Foxp3 is recorded as 0.74 and the IFN-γ/IL-10 amounted to 0.81. Further, in assay [1], the IL-10 came to 11.35 pg/mg, the “Interferon (IFN)-γ” value is given as 9.12 pg/mg, the “NK cell cytoxicity (%)” value stood at 6.47% and the “Phagocytosis (%)” value amounted to 69.91%. In assay [1], this substance displayed a TNF-a/IL-10 of 0.40 and a TNF-α of 4.32 pg/mg. In assay [2], the “Colon (cm)” value was 5.45 cm, the IFN-γ/IL-10 is listed as 0.26, the IL-10 came out at 26.75 pg/mg and the “Interferon (IFN)-γ” value stood at 5.84 pg/mg. For the same substance, in assay [2], the MPO activity was determined as 14.76 μUnit/mg, the TNF-a/IL-10 stood at 1.16 and the TNF-α was found to be 28.27 pg/mg. In assay [3], the “imbalance in the beta diversity, Proteobacteria, and Bacteroidetes of gut microbiota” value is “improved to a balanced form”.

Consider Lactobacillus rhamnosus NK210, for which, in assay [1], the “Foxp3 (fold change)” value is 0.69 fold change, the “Tbet (fold change)” value is listed as 1.07 fold change, the Tbet/Foxp3 is listed as 1.66 and the IFN-γ/IL-10 is recorded as 0.87. Also, in assay [1], the IL-10 turned out to be 8.25 pg/mg, the “Interferon (IFN)-γ” value is reported as 7.03 pg/mg, the “NK cell cytoxicity (%)” value was 7.34% and the “Phagocytosis (%)” value came out at 74.02%. Besides, in assay [1], the TNF-a/IL-10 is 0.45 and the TNF-α turned out to be 3.57 pg/mg. For the same substance, in assay [2], the “Colon (cm)” value is 5.28 cm, the IFN-γ/IL-10 is reported as 0.31, the IL-10 amounted to 21.31 pg/mg and the “Interferon (IFN)-γ” value amounted to 5.94 pg/mg. In assay [2], this substance gave an MPO activity of 11.60 μUnit/mg, a TNF-a/IL-10 of 1.43 and a TNF-α of 22.86 pg/mg. Also, the “imbalance in the beta diversity, Proteobacteria, and Bacteroidetes of gut microbiota” value in assay [3] is listed as “improved to a balanced form”.
